Experimental data from US12606528B2, “Methods and materials for inhibiting NF-kB activity” (University of Pittsburgh - Of the Commonwealth System of …, priority 2019, dated 2026).
Where two headings read alike, the source gives them in different places.

Columns and labels:
TNF release = assay: TNF assay: TNF release from LPS-stimulated human PBMCs (TNF ELISA); format: cell-based; settings: PBMC, read-out: IC50 (TNF assay)
Procedure: 25k THP1-NF-κB-LUC cells were dispensed into 384 well plate (per well). Cells were treated with compounds with various concentrations for 2 hours before addition of LPS (10 ng/mL) for 18 hours. Secreted luciferase activity were measured using quant-luc reagents (1 bag of luc reagent dilute to 40 mL, use 10 μL per well). Data were normalized to vehicle control and graphed. Compound IC50 towards inhibiting NF-κB were determined through Prism. Similarly, 10k human PBMCs cells were cultured in 384 well plate (per well). Cells were treated with compounds with various concentrations for 2 hours before addition of LPS (10 ng/ml) for 18 hours, and supernatants were collected and assayed for TNF ELISA. Compound IC50 towards inhibiting TNF release were determined through Prism. • Activity: “+”>10 μM, “++”>1 μM and <10 μM, “+++”>0.1 μM and <1 μM, “++++”<0.1 μM.

NF-κB = NF-κB assay: THP1-NF-κB-LUC cells, LPS-stimulated secreted luciferase; format: cell-based; settings: THP1-NF-κB-LUC cells, read-out: IC50 (NF-κB assay)
Procedure, shortened: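 THP1-NF-κB-LUC cells (25k/well) were pretreated with compounds for 2 h, then stimulated with LPS (10 ng/mL) for 18 h. Secreted luciferase was measured and normalized to vehicle, and IC50 was fitted from the concentration series.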

[1] = LPS-stimulated human PBMCs, TNF ELISA
[2] = human PBMCs, compounds 2 hours before LPS (10 ng/ml) for 18 hours, supernatant TNF ELISA
[3] = compounds 2 hours before LPS (10 ng/mL) for 18 hours, secreted luciferase

| SMILES | IC50 (TNF release; [1]) | IC50 (NF-κB; LPS-stimulated) | IC50 (TNF release; [2]) | IC50 (NF-κB; [3]) |
| --- | --- | --- | --- | --- |
| NC(=O)c1ccc2nc(-c3cccs3)c(-c3ccc(F)cc3)nc2c1 [BC19155] | 1 to 10 µM | 0.1 to 1 µM |  |  |
| COCCS(=O)(=O)c1[nH]c(-c2ccccc2)nc1S(=O)(=O)c1ccc(Cl)cc1 [BC19468] | > 10 µM | 1 to 10 µM |  |  |
| O=C(O)c1ccc2nc(-c3ccc(OC(F)(F)F)cc3)c(-c3ccc(OC(F)(F)F)cc3)nc2c1 [BC19449] | > 10 µM | > 10 µM |  |  |
| COc1ccc(NS(=O)(=O)c2cc(Br)cc3c2OCC(=O)N3)cc1Cl [BC19171] |  |  | > 10 µM | < 0.1 µM |
| CCc1cccc(NS(=O)(=O)c2cc3c(cc2Br)NC(=O)C(CC(C)C)O3)c1 (centres unmarked) [BC19772] |  |  | > 10 µM | 0.1 to 1 µM |
| Cn1cc(-c2ccc3nc(-c4ccc(F)cc4)c(-c4ccc(F)cc4)nc3c2)cn1 [BC19302] | > 10 µM | 1 to 10 µM |  |  |
| CS(=O)(=O)c1oc(-c2ccccc2)nc1S(=O)(=O)c1ccc(Cl)cc1 [BC19329] | < 0.1 µM | < 0.1 µM |  |  |
| Fc1ccc(-c2nc3cc(-c4ncco4)ccc3nc2C(F)(F)F)cc1 [BC19115] | > 10 µM | > 10 µM |  |  |
| O=c1c(S(=O)(=O)c2ccc(Cl)cc2)c(O)[nH]c2ncccc12 [BC19259] |  |  | > 10 µM | 1 to 10 µM |
| CS(=O)(=O)c1cc2c(c(S(=O)(=O)Nc3ccc(C#N)cc3)c1)OCC(=O)N2 [BC19431] |  |  | > 10 µM | < 0.1 µM |
| CC1Oc2cc(S(=O)(=O)NCc3ccc(OC(F)(F)F)cc3)c(Br)cc2NC1=O (centres unmarked) [BC19357] |  |  | > 10 µM | > 10 µM |
| CCS(=O)(=O)c1cc2c(c(S(=O)(=O)Nc3cccc(Cl)c3)c1)OCC(=O)N2 [BC19441] |  |  | > 10 µM | < 0.1 µM |
| CC(C)CC1Oc2c(cc(Br)cc2S(=O)(=O)Nc2ccc(F)cc2Cl)NC1=O (centres unmarked) [BC19777] |  |  | > 10 µM | < 0.1 µM |
| CS(=O)(=O)c1sc(-c2ccc(Cl)cc2)nc1S(=O)(=O)c1ccc(F)cc1 [BC19534] | 1 to 10 µM | 1 to 10 µM |  |  |
| O=C1CCOc2cc(S(=O)(=O)Nc3cccc(F)c3)c(Br)cc2N1 [BC19654] | > 10 µM | > 10 µM |  |  |
| CCc1ccc(NS(=O)(=O)c2cc(Br)cc3c2OC(CC(C)C)C(=O)N3)cc1 (centres unmarked) [BC19763] |  |  | 1 to 10 µM | 0.1 to 1 µM |
| CC(C)S(=O)(=O)c1sc(-c2cccc(F)c2)nc1S(=O)(=O)c1ccc(Cl)cc1 [BC19476] | > 10 µM | > 10 µM |  |  |
| COCC[S+]([O-])c1sc(-c2ccc3ccccc3c2)nc1S(=O)(=O)c1ccc(Cl)cc1 (centres unmarked) [BC19677] | 1 to 10 µM | 1 to 10 µM |  |  |
| CCc1cccc(NS(=O)(=O)c2cc3c(cc2Cl)NC(=O)C(CC)O3)c1 (centres unmarked) [BC19749] |  |  | > 10 µM | 0.1 to 1 µM |
| Cc1ccc(S(=O)(=O)c2nc(S(=O)(=O)C(C)C)sc2S(=O)(=O)C(C)C)cc1 [BC19543] | < 0.1 µM | 0.1 to 1 µM |  |  |
| CC1Oc2c(cc(Cl)cc2S(=O)(=O)Nc2ccc(F)cc2F)NC1=O (centres unmarked) [BC19710] |  |  | > 10 µM | < 0.1 µM |
| O=C(c1ccc2nc(-c3ccc(F)cc3)c(-c3ccc(F)cc3)nc2c1)N1CCN(CCO)CC1 [BC19513] | > 10 µM | < 0.1 µM |  |  |
| CCC[S+]([O-])c1[nH]c(-c2ccccc2)nc1S(=O)(=O)c1ccc(Cl)cc1 (centres unmarked) [BC19465] | > 10 µM | 1 to 10 µM |  |  |
| CC(C)[S+]([O-])c1sc(-c2ccccc2F)nc1S(=O)(=O)c1ccc(Cl)cc1 (centres unmarked) [BC19629] | > 10 µM | > 10 µM |  |  |
| CC(C)S(=O)(=O)c1[nH]c(-c2ccccc2)nc1S(=O)(=O)c1ccc(F)cc1 [BC19581] | > 10 µM | > 10 µM |  |  |
| CC1Oc2c(cc(Br)cc2S(=O)(=O)Nc2ccc(OC(F)(F)F)cc2)N(C)C1=O (centres unmarked) [BC19783] |  |  | > 10 µM | < 0.1 µM |
| O=c1[nH]ccc2cc([S+]([O-])c3cccc(F)c3)ccc12 (centres unmarked) [BC19519] |  |  | > 10 µM | > 10 µM |
| CC(C)c1ccc(NS(=O)(=O)c2cc3c(cc2Cl)NC(=O)CO3)cc1 [BC19136] |  |  | > 10 µM | > 10 µM |

| SMILES | IC50 (TNF release; [1]) | IC50 (NF-κB; LPS-stimulated) | IC50 (TNF release; [2]) | IC50 (NF-κB; [3]) |
| --- | --- | --- | --- | --- |
| CCC1Oc2cc(S(=O)(=O)NCc3ccccc3)c(Br)cc2NC1=O (centres unmarked) [BC19287] |  |  | > 10 µM | 1 to 10 µM |
| CC(C)CC1Oc2c(cc(Br)cc2S(=O)(=O)Nc2ccc(C(C)C)cc2)NC1=O (centres unmarked) [BC19765] |  |  | > 10 µM | < 0.1 µM |
| CCS(=O)(=O)c1cc2c(c(S(=O)(=O)Nc3ccc(F)cc3Cl)c1)OCC(=O)N2 [BC19442] |  |  | > 10 µM | 0.1 to 1 µM |
| Fc1ccc(-c2nc3ccc(-c4nnc[nH]4)cc3nc2C(F)(F)F)cc1 [BC19159] | > 10 µM | > 10 µM |  |  |
| CCc1cccc(NS(=O)(=O)c2cc(Br)cc3c2OC(C)C(=O)N3)c1 (centres unmarked) [BC19288] |  |  | > 10 µM | < 0.1 µM |
| CC1Oc2cc(S(=O)(=O)Nc3ccc(F)cc3)c(Cl)cc2NC1=O (centres unmarked) [BC19721] |  |  | 1 to 10 µM | < 0.1 µM |
| CCC1Oc2cc(S(=O)(=O)Nc3cccc(F)c3)c(Br)cc2NC1=O (centres unmarked) [BC19220] |  |  | > 10 µM | 0.1 to 1 µM |
| COCCS(=O)(=O)c1sc(-c2ccccc2)nc1S(=O)(=O)c1ccc(Cl)cc1 [BC19625] | 1 to 10 µM | 1 to 10 µM |  |  |
| COCCNC(=O)Nc1ccc2nc(-c3ccc(F)cc3)c(-c3ccc(F)cc3)nc2c1 [BC19565] | > 10 µM | < 0.1 µM |  |  |
| CCCSc1snc(-c2ccc(F)cc2)c1S(=O)(=O)c1ccc(Cl)cc1 [BC19680] | > 10 µM | > 10 µM |  |  |
| CC1Oc2c(cc(Br)cc2S(=O)(=O)NC2CCC(C(C)(C)C)CC2)NC1=O (centres unmarked) [BC19367] |  |  | > 10 µM | > 10 µM |
| COc1ccc(NS(=O)(=O)c2cc(Br)cc3c2OC(CC(C)C)C(=O)N3)cc1Cl (centres unmarked) [BC19779] |  |  | 1 to 10 µM | 0.1 to 1 µM |
| O=C1CCOc2c(cc(Br)cc2S(=O)(=O)Nc2ccc(Cl)cc2)N1 [BC19685] | 1 to 10 µM | < 0.1 µM |  |  |
| CN(C)CCNS(=O)(=O)c1ccc2nc(-c3ccc(F)cc3)c(-c3ccc(F)cc3)nc2c1 [BC19555] | 1 to 10 µM | < 0.1 µM |  |  |
| CCCNS(=O)(=O)c1cc(Br)cc2c1OC(CC)C(=O)N2 (centres unmarked) [BC19229] |  |  | > 10 µM | 1 to 10 µM |
| CCC1Oc2c(cc(Br)cc2S(=O)(=O)NC2CCC(C(C)(C)C)CC2)NC1=O (centres unmarked) [BC19379] |  |  | > 10 µM | > 10 µM |
| CNC(=O)N1c2cc(S(=O)(=O)N3CCCC3)ccc2NC(=O)C1C (centres unmarked) [BC19236] | > 10 µM | > 10 µM |  |  |
| CC(C)c1ccc(NS(=O)(=O)c2cc(S(C)(=O)=O)cc3c2OCC(=O)N3)cc1 [BC19424] |  |  | > 10 µM | < 0.1 µM |
| CC(=O)N1c2cc(S(=O)(=O)N3CCCC3)ccc2NC(=O)C1C (centres unmarked) [BC19182] | > 10 µM | > 10 µM |  |  |
| CCCS(=O)(=O)c1sc(-c2ccc(Cl)cc2)nc1S(=O)(=O)c1ccc(Cl)cc1 [BC19621] | 1 to 10 µM | 1 to 10 µM |  |  |
| Cc1ccc([S+]([O-])c2ccc3c(=O)[nH]ccc3c2)cc1 (centres unmarked) [BC19517] |  |  | > 10 µM | > 10 µM |
| CC(C)c1ccc(NS(=O)(=O)c2cc(Cl)cc3c2OCC(=O)N3)cc1 [BC19174] |  |  | > 10 µM | < 0.1 µM |
| CC(C)(C)C1CCC(NS(=O)(=O)c2cc3c(cc2Br)NC(=O)CO3)CC1 (centres unmarked) [BC19388] |  |  | > 10 µM | > 10 µM |
| CCC1Oc2c(cc(Cl)cc2S(=O)(=O)Nc2ccc(C)cc2)NC1=O (centres unmarked) [BC19754] |  |  | 1 to 10 µM | < 0.1 µM |
| CC(C)C[S+]([O-])c1oc(-c2cccc(F)c2)nc1S(=O)(=O)c1ccc(Cl)cc1 (centres unmarked) [BC19347] | < 0.1 µM | < 0.1 µM |  |  |
| O=C1COc2cc(S(=O)(=O)Nc3ccc(F)cc3F)c(Br)cc2N1 [BC19166] |  |  | > 10 µM | < 0.1 µM |
| CC(C)c1ccc(NS(=O)(=O)c2cc(Br)cc3c2OCCNC3=O)cc1 [BC19605] | > 10 µM | > 10 µM |  |  |
